From patent US20080090734A1, “DRUG SCREENING AND TARGET IDENTIFICATION USING SPR IMAGING OF TARGET PROTEIN ARRAYS” (The Trustees of California State University, priority 2006, published 2008)

What was measured:
[1] = biological target: Bovine Serum Albumin (BSA) (Bos taurus, UniProt P02769); experiment: SPR binding of ferulic acid to pre-immobilized BSA; details: 10, 20, and 50 μM injected; flow rate 1 mL/h
Procedure: By injecting solutions containing different concentrations of FA and recording the resultant sensorgrams, the binding constant between FA and BSA was measured. […] Three different FA concentrations (10, 20, and 50 μM) were injected. A flow rate of 1 mL/h was used. [drawing 1] [drawing] Representative SPR sensorgrams showing binding of ferulic acid (structure on the left) onto pre-immobilized BSA molecules.

[2] = biological target: TrpS protein (tryptophanyl tRNA synthetase) (Escherichia coli, UniProt P00954); experiment: Target-inhibitor interaction by SPR; assay type: binding
Excerpt: (§1) We have examined specific binding interactions between select target proteins and their specific inhibitors. […] [drawing]

MurG protein = MurG protein (Escherichia coli, UniProt P17443); experiment: Target-inhibitor interaction by SPR; assay type: binding
Excerpt: as §1

[3] = system: A. baumannii clinical isolate LAC 18; experiment: Antibiotic susceptibility profile; assay type: cell-based, Acinetobacter baumannii; set-up: key: Resistance; Intermediate; Susceptible
How it was run: (§2)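 Hospital-infection strains (NYC, LA) tested against breakpoint-defined agents only; outcome scored S, I or R.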

[4] = system: A. baumannii clinical isolate NY B; experiment: Antibiotic susceptibility profile; assay type: cell-based, Acinetobacter baumannii; set-up: key: Resistance; Intermediate; Susceptible
How it was run: as §2

[5] = system: A. baumannii clinical isolate LAC 02; experiment: Antibiotic susceptibility profile; assay type: cell-based, Acinetobacter baumannii; set-up: key: Resistance; Intermediate; Susceptible
How it was run: as §2

[6] = system: A. baumannii clinical isolate NY G; experiment: Antibiotic susceptibility profile; assay type: cell-based, Acinetobacter baumannii; set-up: key: Resistance; Intermediate; Susceptible
How it was run: as §2

[7] = system: A. baumannii clinical isolate LAC 06; experiment: Antibiotic susceptibility profile; assay type: cell-based, Acinetobacter baumannii; set-up: key: Resistance; Intermediate; Susceptible
How it was run: as §2

[8] = system: A. baumannii clinical isolate NY E; experiment: Antibiotic susceptibility profile; assay type: cell-based, Acinetobacter baumannii; set-up: key: Resistance; Intermediate; Susceptible
How it was run: as §2

[9] = system: A. baumannii clinical isolate LAC 09; experiment: Antibiotic susceptibility profile; assay type: cell-based, Acinetobacter baumannii; set-up: key: Resistance; Intermediate; Susceptible
How it was run: as §2

[10] = system: A. baumannii clinical isolate LAC 16; experiment: Antibiotic susceptibility profile; assay type: cell-based, Acinetobacter baumannii; set-up: key: Resistance; Intermediate; Susceptible
How it was run: as §2

[11] = system: A. baumannii clinical isolate LAC 11; experiment: Antibiotic susceptibility profile; assay type: cell-based, Acinetobacter baumannii; set-up: key: Resistance; Intermediate; Susceptible
How it was run: as §2

[12] = system: A. baumannii clinical isolate LAC 13; experiment: Antibiotic susceptibility profile; assay type: cell-based, Acinetobacter baumannii; set-up: key: Resistance; Intermediate; Susceptible
How it was run: as §2

[13] = system: A. baumannii clinical isolate LAC 20; experiment: Antibiotic susceptibility profile; assay type: cell-based, Acinetobacter baumannii; set-up: key: Resistance; Intermediate; Susceptible
How it was run: as §2

[14] = system: A. baumannii clinical isolate LAC 04; experiment: Antibiotic susceptibility profile; assay type: cell-based, Acinetobacter baumannii; set-up: key: Resistance; Intermediate; Susceptible
How it was run: as §2

[15] = system: A. baumannii clinical isolate NY C; experiment: Antibiotic susceptibility profile; assay type: cell-based, Acinetobacter baumannii; set-up: key: Resistance; Intermediate; Susceptible
How it was run: as §2

[16] = system: A. baumannii clinical isolate NY F; experiment: Antibiotic susceptibility profile; assay type: cell-based, Acinetobacter baumannii; set-up: key: Resistance; Intermediate; Susceptible
How it was run: as §2

[17] = system: A. baumannii clinical isolate NY A; experiment: Antibiotic susceptibility profile; assay type: cell-based, Acinetobacter baumannii; set-up: key: Resistance; Intermediate; Susceptible
How it was run: as §2

[18] = system: A. baumannii reference strain 15839; experiment: Antibiotic susceptibility profile; assay type: cell-based, Acinetobacter baumannii; set-up: key: Resistance; Intermediate; Susceptible; details: strain 15839 (ATCC)
How it was run: (§3)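 R/I/S calls per drug; panel limited to agents having A. baumannii breakpoints; isolates from hospital-acquired infections, LA County and NYC.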

[19] = system: A. baumannii clinical isolate LAC 01; experiment: Antibiotic susceptibility profile; assay type: cell-based, Acinetobacter baumannii; set-up: key: Resistance; Intermediate; Susceptible
How it was run: as §2

[20] = system: A. baumannii clinical isolate LAC 07; experiment: Antibiotic susceptibility profile; assay type: cell-based, Acinetobacter baumannii; set-up: key: Resistance; Intermediate; Susceptible
How it was run: as §2

[21] = system: A. baumannii reference strain SDF; experiment: Antibiotic susceptibility profile; assay type: cell-based, Acinetobacter baumannii; set-up: key: Resistance; Intermediate; Susceptible
How it was run: as §3

[22] = system: A. baumannii clinical isolate LAC 17; experiment: Antibiotic susceptibility profile; assay type: cell-based, Acinetobacter baumannii; set-up: key: Resistance; Intermediate; Susceptible
How it was run: as §2

[23] = system: A. baumannii clinical isolate LAC 12; experiment: Antibiotic susceptibility profile; assay type: cell-based, Acinetobacter baumannii; set-up: key: Resistance; Intermediate; Susceptible
How it was run: as §2

[24] = system: A. baumannii clinical isolate LAC 03; experiment: Antibiotic susceptibility profile; assay type: cell-based, Acinetobacter baumannii; set-up: key: Resistance; Intermediate; Susceptible
How it was run: as §2

[25] = system: A. baumannii clinical isolate NY H; experiment: Antibiotic susceptibility profile; assay type: cell-based, Acinetobacter baumannii; set-up: key: Resistance; Intermediate; Susceptible
How it was run: as §2

[26] = system: A. baumannii clinical isolate NY D; experiment: Antibiotic susceptibility profile; assay type: cell-based, Acinetobacter baumannii; set-up: key: Resistance; Intermediate; Susceptible
How it was run: as §2

[27] = system: A. baumannii clinical isolate LAC 05; experiment: Antibiotic susceptibility profile; assay type: cell-based, Acinetobacter baumannii; set-up: key: Resistance; Intermediate; Susceptible
How it was run: as §2

[28] = system: A. baumannii clinical isolate LAC 19; experiment: Antibiotic susceptibility profile; assay type: cell-based, Acinetobacter baumannii; set-up: key: Resistance; Intermediate; Susceptible
How it was run: as §2

[29] = system: A. baumannii reference strain 19606; experiment: Antibiotic susceptibility profile; assay type: cell-based, Acinetobacter baumannii; set-up: key: Resistance; Intermediate; Susceptible; details: strain 19606 (ATCC)
How it was run: as §3

[30] = system: A. baumannii reference strain 17978; experiment: Antibiotic susceptibility profile; assay type: cell-based, Acinetobacter baumannii; set-up: key: Resistance; Intermediate; Susceptible; details: strain 17978 (ATCC)
How it was run: as §3

[31] = system: A. baumannii reference strain AYE; experiment: Antibiotic susceptibility profile; assay type: cell-based, Acinetobacter baumannii; set-up: key: Resistance; Intermediate; Susceptible
How it was run: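 Clinical isolates from nosocomial infections in New York City and Los Angeles, tested alongside reference strains against only antibiotics having A. baumannii breakpoints; each scored R (resistant), I (intermediate) or S (susceptible).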

[32] = system: A. baumannii clinical isolate LAC 15; experiment: Antibiotic susceptibility profile; assay type: cell-based, Acinetobacter baumannii; set-up: key: Resistance; Intermediate; Susceptible
How it was run: as §2

[33] = system: A. baumannii clinical isolate LAC 10; experiment: Antibiotic susceptibility profile; assay type: cell-based, Acinetobacter baumannii; set-up: key: Resistance; Intermediate; Susceptible
How it was run: as §2

[34] = system: A. baumannii clinical isolate LAC 14; experiment: Antibiotic susceptibility profile; assay type: cell-based, Acinetobacter baumannii; set-up: key: Resistance; Intermediate; Susceptible
How it was run: as §2

[35] = system: A. baumannii clinical isolate LAC 08; experiment: Antibiotic susceptibility profile; assay type: cell-based, Acinetobacter baumannii; set-up: key: Resistance; Intermediate; Susceptible
How it was run: as §2

Chain of MurG protein (P17443 whole entry): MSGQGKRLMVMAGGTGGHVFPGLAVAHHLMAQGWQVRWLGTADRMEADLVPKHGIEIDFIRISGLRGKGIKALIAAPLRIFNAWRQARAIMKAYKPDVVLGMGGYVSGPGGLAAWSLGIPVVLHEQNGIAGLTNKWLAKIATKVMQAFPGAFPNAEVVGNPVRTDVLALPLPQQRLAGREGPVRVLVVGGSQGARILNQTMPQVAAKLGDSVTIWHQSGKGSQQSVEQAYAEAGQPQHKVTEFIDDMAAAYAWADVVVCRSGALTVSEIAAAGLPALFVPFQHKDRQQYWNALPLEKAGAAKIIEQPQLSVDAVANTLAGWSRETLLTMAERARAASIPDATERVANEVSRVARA
Chain of Bovine Serum Albumin (BSA) (P02769 25-607): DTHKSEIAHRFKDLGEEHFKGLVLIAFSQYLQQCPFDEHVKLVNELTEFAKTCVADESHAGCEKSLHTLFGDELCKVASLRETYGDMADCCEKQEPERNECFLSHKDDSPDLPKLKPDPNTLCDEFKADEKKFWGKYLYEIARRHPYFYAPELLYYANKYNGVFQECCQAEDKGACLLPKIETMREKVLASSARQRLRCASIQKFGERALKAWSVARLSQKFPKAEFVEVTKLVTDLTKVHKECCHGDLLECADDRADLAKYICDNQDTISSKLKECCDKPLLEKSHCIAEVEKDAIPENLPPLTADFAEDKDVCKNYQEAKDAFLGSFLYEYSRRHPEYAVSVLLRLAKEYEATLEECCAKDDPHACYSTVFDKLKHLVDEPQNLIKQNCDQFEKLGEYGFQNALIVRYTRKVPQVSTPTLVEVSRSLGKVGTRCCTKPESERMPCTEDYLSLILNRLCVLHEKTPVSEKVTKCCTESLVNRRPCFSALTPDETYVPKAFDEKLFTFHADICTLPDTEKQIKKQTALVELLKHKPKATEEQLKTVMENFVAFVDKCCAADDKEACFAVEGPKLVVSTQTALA

COc1cc(/C=C/C(=O)O)ccc1O [ferulic acid]
binding onto pre-immobilized BSA (SPR sensorgrams) [1]: binding

CN=C1NC(=O)[C@H]([C@H](C)c2c[nH]c3ccccc23)O1 [indolmycin]
interaction with TrpS protein by SPR [2]: Specific interaction

ramoplanin
binding to MurG protein by SPR (MurG protein): Dose-dependent specific binding

NCC[C@H](O)C(=O)N[C@@H]1C[C@H](N)[C@@H](O[C@H]2O[C@H](CN)[C@@H](O)[C@H](O)[C@H]2O)[C@H](O)[C@H]1O[C@H]1O[C@H](CO)[C@@H](O)[C@H](N)[C@H]1O [AMK, Amikacin]
Antibiotic susceptibility [3]: I | Antibiotic susceptibility [4]: I | Antibiotic susceptibility [5]: I | Antibiotic susceptibility [6]: S | Antibiotic susceptibility [7]: S | Antibiotic susceptibility [8]: S | Antibiotic susceptibility [9]: R | Antibiotic susceptibility [10]: R | Antibiotic susceptibility [11]: S | Antibiotic susceptibility [12]: S | Antibiotic susceptibility [13]: I | Antibiotic susceptibility [14]: I | Antibiotic susceptibility [15]: R | Antibiotic susceptibility [16]: R | Antibiotic susceptibility [17]: I | Antibiotic susceptibility [18]: R | Antibiotic susceptibility [19]: S | Antibiotic susceptibility [20]: R | Antibiotic susceptibility [21]: S | Antibiotic susceptibility [22]: I | Antibiotic susceptibility [23]: S | Antibiotic susceptibility [24]: I | Antibiotic susceptibility [25]: R | Antibiotic susceptibility [26]: R | Antibiotic susceptibility [27]: R | Antibiotic susceptibility [28]: R | Antibiotic susceptibility [29]: S | Antibiotic susceptibility [30]: S | Antibiotic susceptibility [31]: R | Antibiotic susceptibility [32]: R | Antibiotic susceptibility [33]: R | Antibiotic susceptibility [34]: S | Antibiotic susceptibility [35]: I

CO/N=C(\C(=O)N[C@@H]1C(=O)N2C(C(=O)O)=C(COC(C)=O)CS[C@H]12)c1csc(N)n1 [CTX, Cefotaxime]
Antibiotic susceptibility [3]: R | Antibiotic susceptibility [4]: R | Antibiotic susceptibility [5]: R | Antibiotic susceptibility [6]: R | Antibiotic susceptibility [7]: R | Antibiotic susceptibility [8]: R | Antibiotic susceptibility [9]: R | Antibiotic susceptibility [10]: R | Antibiotic susceptibility [11]: R | Antibiotic susceptibility [12]: R | Antibiotic susceptibility [13]: R | Antibiotic susceptibility [14]: R | Antibiotic susceptibility [15]: R | Antibiotic susceptibility [16]: R | Antibiotic susceptibility [17]: R | Antibiotic susceptibility [18]: R | Antibiotic susceptibility [19]: R | Antibiotic susceptibility [20]: R | Antibiotic susceptibility [21]: S | Antibiotic susceptibility [22]: R | Antibiotic susceptibility [23]: R | Antibiotic susceptibility [24]: R | Antibiotic susceptibility [25]: R | Antibiotic susceptibility [26]: R | Antibiotic susceptibility [27]: I | Antibiotic susceptibility [28]: R | Antibiotic susceptibility [29]: I | Antibiotic susceptibility [30]: S | Antibiotic susceptibility [31]: R | Antibiotic susceptibility [32]: R | Antibiotic susceptibility [33]: R | Antibiotic susceptibility [34]: R | Antibiotic susceptibility [35]: I

CCN1CCN(C(=O)N[C@@H](C(=O)N[C@@H]2C(=O)N3[C@@H]2SC(C)(C)[C@@H]3C(=O)O)c2ccccc2)C(=O)C1=O [PIP, Piperacillin]
Antibiotic susceptibility [3]: R | Antibiotic susceptibility [4]: R | Antibiotic susceptibility [5]: R | Antibiotic susceptibility [6]: R | Antibiotic susceptibility [7]: S | Antibiotic susceptibility [8]: R | Antibiotic susceptibility [9]: R | Antibiotic susceptibility [10]: R | Antibiotic susceptibility [11]: R | Antibiotic susceptibility [12]: R | Antibiotic susceptibility [13]: R | Antibiotic susceptibility [14]: R | Antibiotic susceptibility [15]: R | Antibiotic susceptibility [16]: R | Antibiotic susceptibility [17]: R | Antibiotic susceptibility [18]: I | Antibiotic susceptibility [19]: R | Antibiotic susceptibility [20]: R | Antibiotic susceptibility [21]: R | Antibiotic susceptibility [22]: R | Antibiotic susceptibility [23]: R | Antibiotic susceptibility [24]: R | Antibiotic susceptibility [25]: R | Antibiotic susceptibility [26]: R | Antibiotic susceptibility [27]: I | Antibiotic susceptibility [28]: R | Antibiotic susceptibility [29]: I | Antibiotic susceptibility [30]: S | Antibiotic susceptibility [31]: R | Antibiotic susceptibility [32]: R | Antibiotic susceptibility [33]: R | Antibiotic susceptibility [34]: R | Antibiotic susceptibility [35]: I
